Experimental data as given in patent US6355799B1, “Substituted benzene compounds, process for their preparation, and herbicidal and defoliant compositions containing them” (ISK Americas Incorporated, priority 1997, dated 2002).

How the values were obtained:
Format in all cases: in vivo
[1] = system: soybean (Glycine max L., var. Pella 86, SOY); assay: Pre-emerge test, crop safety; conditions: crop damage, pre-emerge, phytotoxicity rating 0-100 at 14 days after application
Summary of the method: (§1)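 Plants grown in 10 cm pots of sandy loam mix received acetone-dissolved compounds through a moving flat-fan nozzle. Doses ranged from 15 to 1000 g ai/ha. Pre-emerge pots were seeded one day earlier, post-emerge pots 8–21 days earlier. Fourteen days on, each pot was graded 0–100 for damage.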

[2] = system: upland rice (Oryza sp., var. Tebonnet, RICE); assay: Pre-emerge test, crop safety; conditions: crop damage, pre-emerge, phytotoxicity rating 0-100 at 14 days after application
Summary of the method: as §1

[3] = system: field corn (Zea mays L., var. Dekalb 535, CORN); assay: Pre-emerge test, crop safety; conditions: crop damage, pre-emerge, phytotoxicity rating 0-100 at 14 days after application
Summary of the method: as §1

[4] = system: soybean (Glycine max L., var. Pella 86, SOY); assay: Post-emerge test, crop safety; conditions: crop damage rating 0-100 at 14 days after application
Summary of the method: (§2)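 Sandy loam pots; pre-emerge: sown 1 d pre-spray, surface-watered after, then bottom-watered. Post-emerge: sown 8–21 d before, 2–3 leaf stage, + 0.25% v/v NIS, bottom-watered. Acetone, 187 l/ha track spray, 15–1000 g ai/ha. 0–100 injury score, day 14.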

[5] = system: upland rice (Oryza sp., var. Tebonnet, RICE); assay: Post-emerge test, crop safety; conditions: post-emerge, crop damage rating 0-100 at 14 days after application
Summary of the method: as §2

[6] = system: field corn (Zea mays L., var. Dekalb 535, CORN); assay: Post-emerge test, crop safety; conditions: post-emerge, crop damage rating 0-100 at 14 days after application
Summary of the method: as §2

[7] = system: redroot pigweed (Amaranthus retroflexus, AMARE); assay: Post-emerge test, greenhouse herbicide activity screening; conditions: post-emerge, phytotoxicity rating 0-100 at 14 days after application
Summary of the method: as §2

[8] = system: large crabgrass (Digitaria sanguinalis, DIGSA); assay: as above; conditions: post-emerge, phytotoxicity rating 0-100 at 14 days after application
Summary of the method: as §2

[9] = system: velvetleaf (Abutilon theophrasti, ABUTH); assay: as above; conditions: post-emerge, phytotoxicity rating 0-100 at 14 days after application
Summary of the method: as §2

[10] = system: lambsquarters (Chenopodium album, CHEAL); assay: as above; conditions: post-emerge, phytotoxicity rating 0-100 at 14 days after application
Summary of the method: as §2

[11] = system: johnsongrass (Sorghum halepense, SORHA); assay: as above; conditions: post-emerge, phytotoxicity rating 0-100 at 14 days after application
Summary of the method: as §2

[12] = system: sicklepod (Cassia obtusifolia, CASOB); assay: as above; conditions: post-emerge, phytotoxicity rating 0-100 at 14 days after application
Summary of the method: as §2

[13] = system: barnyardgrass (Echinochloa crus-galli, ECHCG); assay: as above; conditions: post-emerge, phytotoxicity rating 0-100 at 14 days after application
Summary of the method: as §2

[14] = system: ivyleaf morningglory (Ipomoea hederacea, IPOHE); assay: as above; conditions: post-emerge, phytotoxicity rating 0-100 at 14 days after application
Summary of the method: as §2

[15] = system: green foxtail (Setaria viridis, SETVI); assay: as above; conditions: post-emerge, phytotoxicity rating 0-100 at 14 days after application
Summary of the method: as §2

[16] = system: large crabgrass (Digitaria sanguinalis, DIGSA); assay: Pre-emerge test, greenhouse herbicide activity screening; conditions: pre-emerge, phytotoxicity rating 0-100 at 14 days after application
Summary of the method: as §2

[17] = system: velvetleaf (Abutilon theophrasti, ABUTH); assay: as above; conditions: pre-emerge, phytotoxicity rating 0-100 at 14 days after application
Summary of the method: as §2

[18] = system: lambsquarters (Chenopodium album, CHEAL); assay: as above; conditions: pre-emerge, phytotoxicity rating 0-100 at 14 days after application
Summary of the method: as §2

[19] = system: johnsongrass (Sorghum halepense, SORHA); assay: as above; conditions: pre-emerge, phytotoxicity rating 0-100 at 14 days after application
Summary of the method: as §2

[20] = system: sicklepod (Cassia obtusifolia, CASOB); assay: as above; conditions: pre-emerge, phytotoxicity rating 0-100 at 14 days after application
Summary of the method: as §2

[21] = system: barnyardgrass (Echinochloa crus-galli, ECHCG); assay: as above; conditions: pre-emerge, phytotoxicity rating 0-100 at 14 days after application
Summary of the method: as §2

[22] = system: ivyleaf morningglory (Ipomoea hederacea, IPOHE); assay: as above; conditions: pre-emerge, phytotoxicity rating 0-100 at 14 days after application
Summary of the method: as §2

[23] = system: green foxtail (Setaria viridis, SETVI); assay: as above; conditions: pre-emerge, phytotoxicity rating 0-100 at 14 days after application
Summary of the method: as §2

[24] = system: redroot pigweed (Amaranthus retroflexus, AMARE); assay: as above; conditions: pre-emerge, phytotoxicity rating 0-100 at 14 days after application
Summary of the method: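 Rating: 0–100 visual injury, 14 DAA. Application: acetone, 187 l/ha, 15–1000 g ai/ha, flat-fan track sprayer with nozzle 40–45 cm above soil or canopy. Post-emerge runs used 0.25% v/v surfactant on 2–3 leaf plants.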

`C#CCOc1c(Cl)cc(F)c(-n2nnn(CCCF)c2=O)c1N` [Compound 5-17, 1-(2-amino-4-chloro-6-fluoro-3-propargyloxyphenyl)-4-(3-fluoroproyl)-1,4-dihydro-5-oxo-5H-tetrazole] was tested, and the “Pre-emerge Herbicidal Activity SOY” value ([1]; rate 63 g ai/ha) was 0, the “Pre-emerge Herbicidal Activity SOY” value ([1]; rate 250 g ai/ha) was 0 and the “Pre-emerge Herbicidal Activity RICE” value ([2]; rate 63 g ai/ha) was 20. For the same molecule, the “Pre-emerge Herbicidal Activity RICE” value ([2]; rate 250 g ai/ha) was 20, the “Pre-emerge Herbicidal Activity CORN” value ([3]; rate 63 g ai/ha) was 0 and the “Pre-emerge Herbicidal Activity CORN” value ([3]; rate 250 g ai/ha) was 0. The “Post-emerge Herbicidal Activity SOY” value ([4]; 63 g ai/ha) was 15, the “Post-emerge Herbicidal Activity SOY” value ([4]; 250 g ai/ha) was 70 and the “Post-emerge Herbicidal Activity RICE” value ([5]; 63 g ai/ha) was 10. The “Post-emerge Herbicidal Activity RICE” value ([5]; 250 g ai/ha) was 50, the “Post-emerge Herbicidal Activity CORN” value ([6]; 63 g ai/ha) was 0 and the “Post-emerge Herbicidal Activity CORN” value ([6]; 250 g ai/ha) was 10. For the same molecule, the “Post-emerge Herbicidal Activity AMARE” value ([7]; 63 g ai/ha) was 0, the “Post-emerge Herbicidal Activity AMARE” value ([7]; 250 g ai/ha) was 30 and the “Post-emerge Herbicidal Activity DIGSA” value ([8]; 63 g ai/ha) was 0. The “Post-emerge Herbicidal Activity DIGSA” value ([8]; 250 g ai/ha) was 0, the “Post-emerge Herbicidal Activity ABUTH” value ([9]; 63 g ai/ha) was 90 and the “Post-emerge Herbicidal Activity ABUTH” value ([9]; 250 g ai/ha) was 100. The “Post-emerge Herbicidal Activity CHEAL” value ([10]; 63 g ai/ha) was 20, the “Post-emerge Herbicidal Activity CHEAL” value ([10]; 250 g ai/ha) was 60 and the “Post-emerge Herbicidal Activity SORHA” value ([11]; 63 g ai/ha) was 0. For the same molecule, the “Post-emerge Herbicidal Activity SORHA” value ([11]; 250 g ai/ha) was 10, the “Post-emerge Herbicidal Activity CASOB” value ([12]; 63 g ai/ha) was 0 and the “Post-emerge Herbicidal Activity CASOB” value ([12]; 250 g ai/ha) was 30. For the same molecule, the “Post-emerge Herbicidal Activity ECHCG” value ([13]; 63 g ai/ha) was 0, the “Post-emerge Herbicidal Activity ECHCG” value ([13]; 250 g ai/ha) was 20 and the “Post-emerge Herbicidal Activity IPOHE” value ([14]; 63 g ai/ha) was 30. For the same molecule, the “Post-emerge Herbicidal Activity IPOHE” value ([14]; 250 g ai/ha) was 40, the “Post-emerge Herbicidal Activity SETVI” value ([15]; 63 g ai/ha) was 0 and the “Post-emerge Herbicidal Activity SETVI” value ([15]; 250 g ai/ha) was 80. For the same molecule, the “Pre-emerge Herbicidal Activity DIGSA” value ([16]; rate 63 g ai/ha) was 30, the “Pre-emerge Herbicidal Activity DIGSA” value ([16]; rate 250 g ai/ha) was 50 and the “Pre-emerge Herbicidal Activity ABUTH” value ([17]; rate 63 g ai/ha) was 40. The “Pre-emerge Herbicidal Activity ABUTH” value ([17]; rate 250 g ai/ha) was 100, the “Pre-emerge Herbicidal Activity CHEAL” value ([18]; rate 63 g ai/ha) was 70 and the “Pre-emerge Herbicidal Activity CHEAL” value ([18]; rate 250 g ai/ha) was 100. The “Pre-emerge Herbicidal Activity SORHA” value ([19]; rate 63 g ai/ha) was 40, the “Pre-emerge Herbicidal Activity SORHA” value ([19]; rate 250 g ai/ha) was 70 and the “Pre-emerge Herbicidal Activity CASOB” value ([20]; rate 63 g ai/ha) was 0. The “Pre-emerge Herbicidal Activity CASOB” value ([20]; rate 250 g ai/ha) was 30, the “Pre-emerge Herbicidal Activity ECHCG” value ([21]; rate 63 g ai/ha) was 0 and the “Pre-emerge Herbicidal Activity ECHCG” value ([21]; rate 250 g ai/ha) was 40. The “Pre-emerge Herbicidal Activity IPOHE” value ([22]; rate 63 g ai/ha) was 0, the “Pre-emerge Herbicidal Activity IPOHE” value ([22]; rate 250 g ai/ha) was 0 and the “Pre-emerge Herbicidal Activity SETVI” value ([23]; rate 63 g ai/ha) was 95. The “Pre-emerge Herbicidal Activity SETVI” value ([23]; rate 250 g ai/ha) was 100, the “Pre-emerge Herbicidal Activity AMARE” value ([24]; rate 63 g ai/ha) was 30 and the “Pre-emerge Herbicidal Activity AMARE” value ([24]; rate 250 g ai/ha) was 100.
